Consider one molecule from paper PMC7041627, “Cucurbitacin D Overcomes Gefitinib Resistance by Blocking EGF Binding to EGFR and Inducing Cell Death in NSCLCs” (Frontiers in Oncology, 2020).

One may read the IC50 as the midpoint of a concentration-inhibition curve.

What all share (test): solid-phase competition binding assay with biotinylated EGF on coated receptor ECD/Fc
One assay deals with T1, ErbB3 (Homo sapiens, UniProt P21860).
T1 construct: ErbB3 ECD/Fc chimera; with EGF (biotinylated)

The target in another assay is T2, EGFR (Homo sapiens, UniProt P00533).
T2 construct: human-EGFR ECD/Fc chimera; with EGF (biotinylated)

The target of a further assay is T3, ErbB2 (Homo sapiens, UniProt P04626).
T3 construct: ErbB2 ECD/Fc chimera; with EGF (biotinylated)
T3 sequence (P04626 23-652): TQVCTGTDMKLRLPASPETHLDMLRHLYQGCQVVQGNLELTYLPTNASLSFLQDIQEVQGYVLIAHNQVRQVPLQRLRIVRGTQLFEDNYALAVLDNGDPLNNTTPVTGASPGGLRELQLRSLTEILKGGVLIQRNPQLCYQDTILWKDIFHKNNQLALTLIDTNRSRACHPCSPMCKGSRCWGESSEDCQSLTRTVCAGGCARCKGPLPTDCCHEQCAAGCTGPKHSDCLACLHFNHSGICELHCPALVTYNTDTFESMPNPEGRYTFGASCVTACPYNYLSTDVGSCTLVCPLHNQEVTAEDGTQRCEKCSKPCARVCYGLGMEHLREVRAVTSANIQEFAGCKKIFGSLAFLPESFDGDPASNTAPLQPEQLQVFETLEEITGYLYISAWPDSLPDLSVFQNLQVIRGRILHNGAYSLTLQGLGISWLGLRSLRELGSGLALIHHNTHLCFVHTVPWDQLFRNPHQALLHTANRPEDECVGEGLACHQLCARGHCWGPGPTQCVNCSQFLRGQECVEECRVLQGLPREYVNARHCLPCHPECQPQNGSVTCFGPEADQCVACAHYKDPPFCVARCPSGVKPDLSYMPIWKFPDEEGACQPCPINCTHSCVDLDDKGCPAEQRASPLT
T3 sequence (P01133 971-1023, further chain): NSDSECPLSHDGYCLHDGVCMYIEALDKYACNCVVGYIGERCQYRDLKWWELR

T2 sequence (P00533 25-645 limits assumed): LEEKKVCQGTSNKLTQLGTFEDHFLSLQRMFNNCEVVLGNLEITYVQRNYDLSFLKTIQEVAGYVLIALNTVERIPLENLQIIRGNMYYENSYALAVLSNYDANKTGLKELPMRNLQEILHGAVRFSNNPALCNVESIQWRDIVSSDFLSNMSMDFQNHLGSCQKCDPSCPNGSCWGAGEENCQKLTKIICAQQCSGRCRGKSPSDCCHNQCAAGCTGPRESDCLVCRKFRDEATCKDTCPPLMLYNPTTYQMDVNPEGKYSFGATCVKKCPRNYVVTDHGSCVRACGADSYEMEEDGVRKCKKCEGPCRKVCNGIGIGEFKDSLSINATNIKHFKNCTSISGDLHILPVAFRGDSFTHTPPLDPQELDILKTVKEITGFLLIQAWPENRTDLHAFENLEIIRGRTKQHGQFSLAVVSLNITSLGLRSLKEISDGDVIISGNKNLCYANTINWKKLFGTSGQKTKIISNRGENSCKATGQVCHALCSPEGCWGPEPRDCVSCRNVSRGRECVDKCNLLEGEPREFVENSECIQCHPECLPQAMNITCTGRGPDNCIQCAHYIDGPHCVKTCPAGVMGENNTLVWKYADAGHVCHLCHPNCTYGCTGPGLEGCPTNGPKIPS
T2 sequence (P01133 971-1023 partner): as the sequence (P01133 971-1023, further chain) above
T1 sequence (P21860 20-643 limits assumed): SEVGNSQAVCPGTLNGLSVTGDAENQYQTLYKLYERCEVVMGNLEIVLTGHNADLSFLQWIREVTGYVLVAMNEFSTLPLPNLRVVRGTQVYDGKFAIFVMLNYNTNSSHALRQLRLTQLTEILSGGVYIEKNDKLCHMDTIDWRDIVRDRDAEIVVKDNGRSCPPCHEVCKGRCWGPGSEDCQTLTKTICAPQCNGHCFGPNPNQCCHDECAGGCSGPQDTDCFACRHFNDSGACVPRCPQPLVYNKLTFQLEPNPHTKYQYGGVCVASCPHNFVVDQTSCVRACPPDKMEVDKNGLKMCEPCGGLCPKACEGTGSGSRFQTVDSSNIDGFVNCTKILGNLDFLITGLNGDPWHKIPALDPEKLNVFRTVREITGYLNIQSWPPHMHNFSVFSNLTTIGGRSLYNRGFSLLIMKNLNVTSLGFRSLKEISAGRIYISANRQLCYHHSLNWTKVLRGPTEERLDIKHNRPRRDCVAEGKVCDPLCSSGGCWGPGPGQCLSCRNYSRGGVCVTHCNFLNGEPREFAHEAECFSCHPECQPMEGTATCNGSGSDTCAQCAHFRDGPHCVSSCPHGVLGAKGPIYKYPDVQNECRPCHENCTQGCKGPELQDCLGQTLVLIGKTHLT
T1 sequence (P01133 971-1023 partner): as the sequence (P01133 971-1023, further chain) above

Take `CC(C)(O)/C=C/C(=O)[C@](C)(O)[C@H]1[C@H](O)C[C@@]2(C)[C@@H]3CC=C4[C@@H](C[C@H](O)C(=O)C4(C)C)[C@]3(C)C(=O)C[C@]12C` [CuD, cucurbitacin D]: the results for the IC50 on ErbB3, at EGFR and at ErbB2 were 331 nM, 4.33 nM and 11.1 nM, respectively.
